As usually defined, the Ki is a dissociation constant, usually derived from enzyme kinetics or from competition with a known ligand. The term half-life denotes the time in which the quantity being followed falls by half. Broadly, the Cmax is the highest concentration seen after dosing.

Results on 7 molecules are retold here after ChEMBL document CHEMBL1130777, “L-374,087, an efficacious, orally bioavailable, pyridinone acetamide thrombin inhibitor” (Bioorg Med Chem Lett, 1998).

Data set [1] has as its target Prothrombin (Homo sapiens, UniProt P00734). The data set is described as follows: Binding affinity towards thrombin was evaluated.
Data set [2] concerns the target Serine protease 1 (Homo sapiens, UniProt P07477). Description: Binding affinity towards trypsin was evaluated.
Data set [3] can be described thus: Compound was evaluated for the half life period after iv administration in cynomolgus monkey. It is filed as ADME, organism-based. Particulars: cercopithecidae, in vivo.
The nature of data set [4]: Maximum concentration was evaluated after 75 min after administration in dog. Format: ADME, organism-based, Canis lupus familiaris. Particulars: in vivo.
Data set [5] is described as follows: Oral bioavailability after 5 mg/kg in cynomolgus monkey was determined. Format: ADME, organism-based. Particulars: cercopithecidae, in vivo, read-out: Bioavailabiility.
Data set [6] in a line: Compound was evaluated for the half life period after iv administration in Beagle dog. Format: ADME, organism-based, Canis lupus familiaris. Particulars: in vivo.
Data set [7] in a line: Compound was evaluated for the oral bioavailability after oral administration in dog. Particulars: in vivo, read-out: Bioavailabiility. Format: ADME, organism-based, Canis lupus familiaris.
The test system of data set [8] is Rattus norvegicus. The data set is described as follows: Incidence of occlusion was determined in the rat ferric chloride arterial thrombosis model at 3 dose ug/kg/min after intravenous administration; 2/6. It is filed as functional.
The test system of data set [9] is Rattus norvegicus. Description: Incidence of occlusion was determined in the rat ferric chloride arterial thrombosis model at 10 dose ug/kg/min after intravenous administration; 0/9. Format: functional.
Data set [10] concerns Rattus norvegicus. Description: Incidence of occlusion was determined in the rat ferric chloride arterial thrombosis model at 1 dose ug/kg/min after intravenous administration; 5/6. Format: functional.
The test system of data set [11] is Rattus norvegicus. The data set is described as follows: Incidence of occlusion was determined in the rat ferric chloride arterial thrombosis model at 5 dose ug/kg/min after intravenous administration; 1/6. Format: functional.

Chain of Serine protease 1 (P07477 whole entry): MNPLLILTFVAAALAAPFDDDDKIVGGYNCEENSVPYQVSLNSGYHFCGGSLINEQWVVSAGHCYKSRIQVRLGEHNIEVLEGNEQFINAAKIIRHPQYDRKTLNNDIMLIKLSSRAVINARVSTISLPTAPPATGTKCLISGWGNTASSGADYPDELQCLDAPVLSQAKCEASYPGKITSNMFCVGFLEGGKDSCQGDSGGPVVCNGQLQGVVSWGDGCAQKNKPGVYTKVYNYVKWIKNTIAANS

`Cc1cc(N)nc(C)c1CNC(=O)Cn1c(C)ccc(NS(=O)(=O)Cc2ccccc2)c1=O`: the Ki in data set [1] was found to be 0.33 nM; in data set [2], 2.1 µM.

For the molecule `Cc1cc(N)ncc1CNC(=O)Cn1c(C)ccc(NS(=O)(=O)Cc2ccccc2)c1=O`, the Ki in data set [1] was found to be 12 nM; in data set [2], 1.5 µM.

Turning to `Cc1nc(N)ccc1CNC(=O)Cn1c(C)ccc(NS(=O)(=O)Cc2ccccc2)c1=O.Cl`, the half-life in data set [3] amounted to 145 min; in [6], 90 min. This molecule also yielded a Cmax in data set [4] of 990 nM. The bioavailability is 19% in [5] and 44% in data set [7].

In the case of `Cc1nc(N)ccc1CNC(=O)Cn1cccc(NS(=O)(=O)Cc2ccccc2)c1=O`, the Ki in data set [1] worked out at 26 nM; in data set [2], 20 µM.

On to `Cc1nc(N)ccc1CNC(=O)Cn1c(C)ccc(NCCc2ccccc2)c1=O`, for which the Ki in [1] came out at 2.3 nM; in data set [2] it was 4.3 µM.

As to `Cc1ccc(NS(=O)(=O)Cc2ccccc2)c(=O)n1CC(=O)NCc1ccc(N)nc1`, the Ki was found to be 11 nM in data set [1] and 3 µM in data set [2].

As for `Cc1nc(N)ccc1CNC(=O)Cn1c(C)ccc(NS(=O)(=O)Cc2ccccc2)c1=O` [L-374087], the Incidence of occlusion is listed as 2 in data set [8], 0 in data set [9], 5 in data set [10] and 1 in data set [11].
